Reference: patent US20260262643A1, “HERBICIDAL BENZOXAZINES” (FMC CORPORATION, priority 2022, published 2026)

Tests used:
[1] = system: barnyardgrass; experiment: Test C preemergence; assay type: in vivo, Echinochloa crusgalli; conditions: for Plant response rating, Barnyardgrass: Preemergence; for Barnyardgrass plant response rating: Test C, preemergence, 125 g ai/ha
How it was run: (§1)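 Visual injury score, 0–100 (100 = complete control), taken 10 days after treatment relative to untreated controls. Pre: directed spray onto soil over sown seeds. Post: foliar spray at one- to two-leaf stage, 2–10 cm. Solvent/surfactant formulation; loam–sand soil; greenhouse.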

[2] = system: blackgrass; experiment: Test C preemergence; assay type: in vivo, Alopecurus myosuroides; conditions: for Plant response rating, Blackgrass: Preemergence; for Blackgrass plant response rating: Test C, preemergence, 125 g ai/ha
How it was run: as §1

[3] = system: corn; experiment: Test C preemergence; assay type: in vivo, Zea mays; conditions: for Plant response rating, Corn: Preemergence; for Corn plant response rating: Test C, preemergence, 125 g ai/ha
How it was run: as §1

[4] = system: green foxtail; experiment: Test C preemergence; assay type: in vivo, Setaria viridis; conditions: for Plant response rating, Foxtail, Green: Preemergence; for Foxtail, Green plant response rating: Test C, preemergence, 125 g ai/ha
How it was run: as §1

[5] = system: kochia; experiment: Test C preemergence; assay type: in vivo, Bassia scoparia; conditions: for Plant response rating, Kochia: Preemergence; for Kochia plant response rating: Test C, preemergence, 125 g ai/ha
How it was run: as §1

[6] = system: oat, wild; experiment: Test C preemergence; assay type: in vivo, Avena fatua; conditions: for Plant response rating, Oat, Wild: Preemergence; for Oat, Wild plant response rating: Test C, preemergence, 125 g ai/ha
How it was run: as §1

[7] = system: pigweed, palmer; experiment: Test C preemergence; assay type: in vivo, Amaranthus palmeri; conditions: for Plant response rating, Pigweed, Palmer: Preemergence; for Pigweed, Palmer plant response rating: Test C, preemergence, 125 g ai/ha
How it was run: as §1

[8] = system: ragweed; experiment: Test C preemergence; assay type: in vivo, Ambrosia artemisiifolia; conditions: for Plant response rating, Ragweed: Preemergence; for Ragweed plant response rating: Test C, preemergence, 125 g ai/ha
How it was run: as §1

[9] = system: soybean; experiment: Test C preemergence; assay type: in vivo, Glycine max; conditions: for Plant response rating, Soybean: Preemergence; for Soybean plant response rating: Test C, preemergence, 125 g ai/ha
How it was run: as §1

[10] = system: wheat; experiment: Test C preemergence; assay type: in vivo, Triticum aestivum; conditions: for Plant response rating, Wheat: Preemergence; for Wheat plant response rating: Test C, preemergence, 125 g ai/ha
How it was run: as §1

[11] = system: barnyardgrass; experiment: Test C postemergence; assay type: in vivo, Echinochloa crusgalli; conditions: 10 days
How it was run: as §1

[12] = system: blackgrass; experiment: Test C postemergence; assay type: in vivo, Alopecurus myosuroides; conditions: 10 days
How it was run: as §1

[13] = system: corn; experiment: Test C postemergence; assay type: in vivo, Zea mays; conditions: 10 days
How it was run: as §1

[14] = system: green foxtail; experiment: Test C postemergence; assay type: in vivo, Setaria viridis; conditions: 10 days
How it was run: as §1

[15] = system: kochia; experiment: Test C postemergence; assay type: in vivo, Bassia scoparia; conditions: 10 days
How it was run: as §1

[16] = system: oat, wild; experiment: Test C postemergence; assay type: in vivo, Avena fatua; conditions: 10 days
How it was run: as §1

[17] = system: pigweed, palmer; experiment: Test C postemergence; assay type: in vivo, Amaranthus palmeri; conditions: 10 days
How it was run: as §1

[18] = system: ragweed; experiment: Test C postemergence; assay type: in vivo, Ambrosia artemisiifolia; conditions: 10 days
How it was run: as §1

[19] = system: ryegrass, Italian; experiment: Test C postemergence; assay type: in vivo, Lolium multiflorum; conditions: 10 days
How it was run: as §1

[20] = system: soybean; experiment: Test C postemergence; assay type: in vivo, Glycine max; conditions: 10 days
How it was run: as §1

[21] = system: wheat; experiment: Test C postemergence; assay type: in vivo, Triticum aestivum; conditions: 10 days
How it was run: as §1

[22] = system: galium; experiment: Test C postemergence; assay type: in vivo, Galium aparine; conditions: 10 days
How it was run: as §1

[23] = system: horseweed; experiment: Test C postemergence; assay type: in vivo, Erigeron canadensis; conditions: 10 days
How it was run: as §1

[24] = system: barnyardgrass; experiment: Test D flooded paddy test; assay type: in vivo, Echinochloa crus-galli; conditions: 250 g ai/ha, applied to paddy water, visual rating after 13 to 14 days, scale 0 to 100 (0 no effect, 100 complete control)
How it was run: (§2)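 Post-flood water application at the 2-leaf stage; 3 cm flood depth kept constant; visual control rating 0–100 after 13–14 days greenhouse growth.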

[25] = system: ducksalad; experiment: Test D flooded paddy test; assay type: in vivo, Heteranthera limosa; conditions: 250 g ai/ha, applied to paddy water, visual rating after 13 to 14 days, scale 0 to 100 (0 no effect, 100 complete control)
How it was run: as §2

[26] = system: rice; experiment: Test D flooded paddy test; assay type: in vivo, Oryza sativa; conditions: 250 g ai/ha, applied to paddy water, visual rating after 13 to 14 days, scale 0 to 100 (0 no effect, 100 complete control)
How it was run: as §2

[27] = system: sedge, umbrella; experiment: Test D flooded paddy test; assay type: in vivo, Cyperus difformis; conditions: 250 g ai/ha, applied to paddy water, visual rating after 13 to 14 days, scale 0 to 100 (0 no effect, 100 complete control)
How it was run: as §2

[28] = 31 g ai/ha, 0 to 100 scale, 0 no effect, 100 complete control
[29] = 0 to 100 scale (0 no effect, 100 complete control)
[30] = 125 g ai/ha, postemergence, 0 to 100 scale, 0 no effect, 100 complete control
[31] = Postemergence, 31 g ai/ha, 0 to 100 scale, 0 no effect, 100 complete control
[32] = 500 g ai/ha, visual rating after 10 days, 0 to 100 scale (0 no effect, 100 complete control)
[33] = Postemergence, 500 g ai/ha, visual 0 to 100 scale (0 no effect, 100 complete control)

CCC(O)(CC)c1ncn(-c2ccc(C)c(C(=O)N3C[C@H](C)Oc4c(Cl)cccc43)c2)n1 [Compound 180]
Plant response rating, Barnyardgrass [1, 28]: 0 | Barnyardgrass plant response rating [1, 29]: 60 | Plant response rating, Blackgrass [2, 28]: 0 | Blackgrass plant response rating [2, 29]: 20 | Plant response rating, Corn [3, 28]: 0 | Corn plant response rating [3, 29]: 0 | Plant response rating, Foxtail, Green [4, 28]: 30 | Foxtail, Green plant response rating [4, 29]: 70 | Plant response rating, Kochia [5, 28]: 0 | Kochia plant response rating [5, 29]: 0 | Plant response rating, Oat, Wild [6, 28]: 0 | Oat, Wild plant response rating [6, 29]: 50 | Plant response rating, Pigweed, Palmer [7, 28]: 0 | Pigweed, Palmer plant response rating [7, 29]: 60 | Plant response rating, Ragweed [8, 28]: 0 | Ragweed plant response rating [8, 29]: 20 | Plant response rating, Soybean [9, 28]: 0 | Soybean plant response rating [9, 29]: 50 | Plant response rating, Wheat [10, 28]: 0 | Wheat plant response rating [10, 29]: 0 | Plant response rating, Barnyardgrass [11, 30]: 20 | Plant response rating, Barnyardgrass [11, 31]: 10 | Plant response rating, Blackgrass [12, 30]: 10 | Plant response rating, Blackgrass [12, 31]: 0 | Plant response rating, Corn [13, 30]: 10 | Plant response rating, Corn [13, 31]: 0 | Plant response rating, Foxtail, Green [14, 30]: 20 | Plant response rating, Foxtail, Green [14, 31]: 10 | Plant response rating, Kochia [15, 30]: 50 | Plant response rating, Kochia [15, 31]: 30 | Plant response rating, Oat, Wild [16, 30]: 70 | Plant response rating, Oat, Wild [16, 31]: 0 | Plant response rating, Pigweed, Palmer [17, 30]: 70 | Plant response rating, Pigweed, Palmer [17, 31]: 30 | Plant response rating, Ragweed [18, 30]: 60 | Plant response rating, Ragweed [18, 31]: 40 | Plant response rating, Ryegrass, Italian [19, 30]: 50 | Plant response rating, Ryegrass, Italian [19, 31]: 0 | Plant response rating, Soybean [20, 30]: 100 | Plant response rating, Soybean [20, 31]: 90 | Plant response rating, Wheat [21, 30]: 20 | Plant response rating, Wheat [21, 31]: 10 | Plant response rating, Galium [22, 30]: 90 | Plant response rating, Galium [22, 31]: 70 | Plant response rating, Horseweed [23, 30]: 0 | Plant response rating, Horseweed [23, 31]: 0 | Plant response rating, Barnyardgrass (Flood) [24]: 0 | Plant response rating, Ducksalad (Flood) [25]: 65 | Plant response rating, Rice (Flood) [26]: 0 | Plant response rating, Sedge, Umbrella (Flood) [27]: 40

CSCc1ncn(-c2ccc(C)c(C(=O)N3C[C@H](C)Oc4c(Cl)cccc43)c2)n1 [Compound 178]
Plant response rating, Barnyardgrass [1, 32]: 90 | Barnyardgrass plant response rating [1, 29]: 20 | Plant response rating, Blackgrass [2, 32]: 90 | Blackgrass plant response rating [2, 29]: 60 | Plant response rating, Corn [3, 32]: 50 | Corn plant response rating [3, 29]: 20 | Plant response rating, Foxtail, Green [4, 32]: 100 | Foxtail, Green plant response rating [4, 29]: 100 | Plant response rating, Kochia [5, 32]: 100 | Kochia plant response rating [5, 29]: 90 | Plant response rating, Oat, Wild [6, 32]: 90 | Oat, Wild plant response rating [6, 29]: 30 | Plant response rating, Pigweed, Palmer [7, 32]: 100 | Pigweed, Palmer plant response rating [7, 29]: 90 | Plant response rating, Ragweed [8, 32]: 50 | Ragweed plant response rating [8, 29]: 0 | Plant response rating, Soybean [9, 32]: 80 | Soybean plant response rating [9, 29]: 60 | Plant response rating, Wheat [10, 32]: 70 | Wheat plant response rating [10, 29]: 30 | Plant response rating, Barnyardgrass [11, 30]: 10 | Plant response rating, Barnyardgrass [11, 33]: 60 | Plant response rating, Blackgrass [12, 30]: 60 | Plant response rating, Blackgrass [12, 33]: 90 | Plant response rating, Corn [13, 30]: 60 | Plant response rating, Corn [13, 33]: 90 | Plant response rating, Foxtail, Green [14, 30]: 20 | Plant response rating, Foxtail, Green [14, 33]: 90 | Plant response rating, Kochia [15, 30]: 80 | Plant response rating, Kochia [15, 33]: 90 | Plant response rating, Oat, Wild [16, 30]: 30 | Plant response rating, Oat, Wild [16, 33]: 90 | Plant response rating, Pigweed, Palmer [17, 30]: 90 | Plant response rating, Pigweed, Palmer [17, 33]: 90 | Plant response rating, Ragweed [18, 30]: 60 | Plant response rating, Ragweed [18, 33]: 90 | Plant response rating, Ryegrass, Italian [19, 30]: 80 | Plant response rating, Ryegrass, Italian [19, 33]: 100 | Plant response rating, Soybean [20, 30]: 100 | Plant response rating, Soybean [20, 33]: 100 | Plant response rating, Wheat [21, 30]: 20 | Plant response rating, Wheat [21, 33]: 50 | Plant response rating, Galium [22, 30]: 100 | Plant response rating, Galium [22, 33]: 100 | Plant response rating, Horseweed [23, 30]: 70 | Plant response rating, Horseweed [23, 33]: 90 | Plant response rating, Barnyardgrass (Flood) [24]: 15 | Plant response rating, Ducksalad (Flood) [25]: 95 | Plant response rating, Rice (Flood) [26]: 15 | Plant response rating, Sedge, Umbrella (Flood) [27]: 90

CCc1c(C)cc(-n2cnc(C(C)C)n2)cc1C(=O)N1C[C@H](C)Oc2c(Cl)cccc21 [Compound 179]
Plant response rating, Barnyardgrass [1, 32]: 0 | Barnyardgrass plant response rating [1, 29]: 0 | Plant response rating, Blackgrass [2, 32]: 0 | Blackgrass plant response rating [2, 29]: 0 | Plant response rating, Corn [3, 32]: 0 | Corn plant response rating [3, 29]: 0 | Plant response rating, Foxtail, Green [4, 32]: 50 | Foxtail, Green plant response rating [4, 29]: 0 | Plant response rating, Kochia [5, 32]: 0 | Kochia plant response rating [5, 29]: 0 | Plant response rating, Oat, Wild [6, 32]: 0 | Oat, Wild plant response rating [6, 29]: 0 | Plant response rating, Pigweed, Palmer [7, 32]: 10 | Pigweed, Palmer plant response rating [7, 29]: 0 | Plant response rating, Ragweed [8, 32]: 0 | Ragweed plant response rating [8, 29]: 0 | Plant response rating, Soybean [9, 32]: 0 | Soybean plant response rating [9, 29]: 0 | Plant response rating, Wheat [10, 32]: 0 | Wheat plant response rating [10, 29]: 0 | Plant response rating, Barnyardgrass [11, 30]: 10 | Plant response rating, Barnyardgrass [11, 33]: 10 | Plant response rating, Blackgrass [12, 30]: 0 | Plant response rating, Blackgrass [12, 33]: 0 | Plant response rating, Corn [13, 30]: 0 | Plant response rating, Corn [13, 33]: 10 | Plant response rating, Foxtail, Green [14, 30]: 10 | Plant response rating, Foxtail, Green [14, 33]: 20 | Plant response rating, Kochia [15, 30]: 30 | Plant response rating, Kochia [15, 33]: 30 | Plant response rating, Oat, Wild [16, 30]: 0 | Plant response rating, Oat, Wild [16, 33]: 0 | Plant response rating, Pigweed, Palmer [17, 30]: 10 | Plant response rating, Pigweed, Palmer [17, 33]: 60 | Plant response rating, Ragweed [18, 33]: 10 | Plant response rating, Ryegrass, Italian [19, 30]: 0 | Plant response rating, Ryegrass, Italian [19, 33]: 20 | Plant response rating, Soybean [20, 33]: 40 | Plant response rating, Wheat [21, 30]: 10 | Plant response rating, Wheat [21, 33]: 10 | Plant response rating, Galium [22, 30]: 50 | Plant response rating, Galium [22, 33]: 90 | Plant response rating, Horseweed [23, 30]: 0 | Plant response rating, Horseweed [23, 33]: 40 | Plant response rating, Barnyardgrass (Flood) [24]: 0 | Plant response rating, Ducksalad (Flood) [25]: 0 | Plant response rating, Rice (Flood) [26]: 0 | Plant response rating, Sedge, Umbrella (Flood) [27]: 0
